Laboratory results: patent US8536198B2, “Piperidine derivatives as modulators of chemokine receptor activity” (Bristol-Myers Squibb Company, priority 2007, dated 2013)

target: CCR1 (Homo sapiens (Human), UniProt P32246); assay: CCR1 Ligand Binding Scintillation Proximity Assay (SPA); conditions: [125I]-MIP-1α competition binding on THP-1 monocytic leukemia cells, 12 h at room temperature
Description: CCR1 Ligand Binding Scintillation Proximity Assay (SPA)
For radioligand competition studies, a final concentration of 1×10^5 THP-1 monocytic leukemia cells are combined with 100 μg of LS WGA PS beads (Amersham, Cat.#: RPNQ 0260) in 40 μl of assay buffer (RPMI 1640 without phenol red, 50 mM HEPES, 5 mM MgCl2, 1 mM CaCl2, 0.1% BSA). The THP-1 cell/bead mixture is added to each well of a 384-well assay plate (PerkinElmer, Cat. #:6007899) containing test compound in 3-fold serial dilution, with final concentrations ranging from 8 μM to […]. A final concentration of 0.1 nM [^125I]-MIP-1α (PerkinElmer, Cat. # NEX298) in 20 μl assay buffer is added to the reaction. Sealed assay plates are incubated at room temperature for 12 h then analyzed by LEADseeker™.
The competition data of the test compound over a range of concentrations is plotted as percentage inhibition of radioligand specific bound in the absence of test compound (percent of total signal). After correcting for non-specific binding, IC50 values are determined. The IC50 value is defined as the concentration of test compound needed to reduce [^125I]-MIP-1α specific binding by 50% and is calculated using the four parameter logistic equation to fit the normalized data. The Ki values are determined by application of the Cheng-Prusoff equation to the IC50 values, where Ki=IC50/(1+ ligand concentration/Kd) The Kd of [^125I]-MIP-1α in THP-1 cells is 0.1 nM. Each experiment is run in duplicate.

CCR1, sequence (P32246 whole entry): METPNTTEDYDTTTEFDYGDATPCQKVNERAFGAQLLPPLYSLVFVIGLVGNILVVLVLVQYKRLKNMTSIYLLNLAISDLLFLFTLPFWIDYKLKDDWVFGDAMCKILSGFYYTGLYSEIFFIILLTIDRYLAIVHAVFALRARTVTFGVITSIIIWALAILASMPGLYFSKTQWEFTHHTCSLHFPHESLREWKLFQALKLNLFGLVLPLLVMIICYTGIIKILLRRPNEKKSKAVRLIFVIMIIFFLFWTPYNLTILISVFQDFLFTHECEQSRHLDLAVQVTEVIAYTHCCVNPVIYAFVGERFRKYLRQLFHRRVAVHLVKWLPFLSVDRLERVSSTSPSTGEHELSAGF

SMILES	IC50 [µM]
C[C@@H](O)CNC(=O)N[C@@H]1CCCC[C@@H]1C(=O)N1CC[C@](O)(c2ccc(Cl)cc2)C(C)(C)C1 [Example 76]	0.0146
CC1(C)CN(C(=O)[C@H]2CCCC[C@H]2NC(=O)CCN2CCCCC2)CC[C@]1(O)c1ccc(Cl)cc1 [Example 58]	0.932
CC1(C)CN(C(=O)[C@H]2CCCC[C@H]2NC(=O)CCc2ccccc2)CC[C@]1(O)c1ccc(Cl)cc1 [Example 60]	0.0157
CC1(C)CN(C(=O)[C@H]2CCCC[C@H]2NC(=O)[C@H](O)c2ccccc2)CC[C@]1(O)c1ccc(Cl)cc1 [Example 67]	0.858
CC1(C)CN(C(=O)[C@H]2CCCC[C@H]2NC(=O)c2cncnc2)CC[C@]1(O)c1ccc(Cl)cc1 [Example 57]	0.0187
CC1(C)CN(C(=O)[C@H]2CCCC[C@H]2NC(=O)Nc2ccccc2)CC[C@]1(O)c1ccc(Cl)cc1 [Example 35]	0.0185
CC(C)(C)OC(=O)N[C@@H]1CCC[C@@H]1C(=O)N1CC[C@](O)(c2ccc(Cl)cc2)C(C)(C)C1 [Example 7, tert-Butyl (1R,2S)-2-((S)-4-(4-chlorophenyl)-4-hydroxy-3,3-dimethylpiperidine-1-carbonyl)cyclopentylcarbamate]	0.0121
CC1(C)CN(C(=O)[C@H]2CCC[C@H]2NC(=O)c2cccc(S(N)(=O)=O)c2)CC[C@]1(O)c1ccc(Cl)cc1 [Example 80]	0.001
COC(=O)N[C@@H]1CCCC[C@@H]1C(=O)N1CC[C@](O)(c2ccc(Cl)cc2)C(C)(C)C1 [Example 41]	0.997
CC1(C)CN(C(=O)[C@H]2CCC[C@H]2NC(=O)[C@@H]2CC[C@H](O)C2)CC[C@]1(O)c1ccc(Cl)cc1 [Example 83]	0.014
CC1(C)CN(C(=O)[C@H]2CCC[C@H]2NC(=O)Nc2ccccc2)CC[C@]1(O)c1ccc(Cl)cc1 [Example 9, 1-((1R,2S)-2-((S)-4-(4-Chlorophenyl)-4-hydroxy-3,3-dimethylpiperidine-1-carbonyl)cyclopentyl)-3-phenylurea]	0.0115
CC1(C)CN(C(=O)[C@H]2CC(=O)CC[C@H]2NC(=O)c2ccccc2)CC[C@]1(O)c1ccc(Cl)cc1 [Example 11, N-((1R,2S)-2-((S)-4-(4-Chlorophenyl)-4-hydroxy-3,3-dimethylpiperidine-1-carbonyl)-4-oxocyclohexyl)benzamide]	0.0172
CC1(C)CN(C(=O)[C@H]2CCCC[C@H]2NC(=O)c2ccccc2)CC[C@]1(O)c1ccc(Cl)cc1 [Example 2, N-((1R,2S)-2-((S)-4-(4-Chlorophenyl)-4-hydroxy-3,3-dimethylpiperidine-1-carbonyl)cyclohexyl)benzamide]	0.0021
CC1(C)CN(C(=O)[C@H]2CC3(CC[C@H]2NC(=O)c2ccccc2)OCCO3)CC[C@]1(O)c1ccc(Cl)cc1 [Example 10, N-((7S,8R)-7-((S)-4-(4-Chlorophenyl)-4-hydroxy-3,3-dimethylpiperidine-1-carbonyl)-1,4-dioxaspiro[4.5]decan-8-yl)benzamide]	1.06
CC1(C)CN(C(=O)[C@H]2CCCC[C@H]2NC(=O)CO)CC[C@]1(O)c1ccc(Cl)cc1 [Example 61]	0.768
CC1(C)CN(C(=O)[C@H]2CCCC[C@H]2NC(=O)[C@@H](O)c2ccccc2)CC[C@]1(O)c1ccc(Cl)cc1 [Example 68]	0.581

Second part, the compound after the results:

IC50 [µM]	SMILES
0.0015	CC1(C)CN(C(=O)[C@H]2CCC[C@H]2NC(=O)[C@H]2CC[C@@H](O)C2)CC[C@]1(O)c1ccc(Cl)cc1 [Example 84]
0.818	CC1(C)CN(C(=O)[C@H]2CCCC[C@@]2(C)NC(=O)c2ccccc2)CC[C@]1(O)c1ccc(Cl)cc1 [Example 104]
0.0013	CC1(C)CN(C(=O)[C@H]2CCC[C@H]2NC(=O)C2CCCC2)CC[C@]1(O)c1ccc(Cl)cc1 [Example 86]
0.0113	CC1(C)CN(C(=O)[C@H]2CCCC[C@H]2NC(=O)c2cccc(C(=O)O)c2)CC[C@]1(O)c1ccc(C#N)cc1 [Example 100, 3-((1R,2S)-2-((S)-4-(4-Cyanophenyl)-4-hydroxy-3,3-dimethylpiperidine-1-carbonyl)cyclohexylcarbamoyl)benzoic acid]
0.0007	C[C@H](NC(=O)N[C@@H]1CCCC[C@@H]1C(=O)N1CC[C@](O)(c2ccc(Cl)cc2)C(C)(C)C1)C(C)(C)O [Example 106]
0.0018	CC1(C)CN(C(=O)[C@H]2CCC[C@H]2NC(=O)c2cccc(C(N)=O)c2)CC[C@]1(O)c1ccc(Cl)cc1 [Example 89]
0.0016	CC1(C)CN(C(=O)[C@H]2CCC[C@H]2NC(=O)c2cccc(C(=O)O)c2)CC[C@]1(O)c1ccc(Cl)cc1 [Example 85]
